Patent publication US7612036B2, “Peptoid compounds” (University of Wollongong, priority 2001, dated 2009)
Converted amounts (≈) assume the structure as drawn.

System: D-Ala-D-lactate terminus of the peptidoglycan
Assay: not given
Details: D-Ala-D-lactate terminus versus D-Ala-D-Ala terminus; cited from earlier work

Compound | decrease in affinity
CN[C@H](CC(C)C)C(=O)N[C@H]1C(=O)N[C@@H](CC(N)=O)C(=O)N[C@H]2C(=O)N[C@H]3C(=O)N[C@H](C(=O)N[C@H](C(=O)O)c4cc(O)cc(O)c4-c4cc3ccc4O)[C@H](O)c3ccc(c(Cl)c3)Oc3cc2cc(c3O[C@@H]2O[C@H](CO)[C@@H](O)[C@H](O)[C@H]2O[C@H]2C[C@](C)(N)[C@H](O)[C@H](C)O2)Oc2ccc(cc2Cl)[C@H]1O [Vancomycin] | ca. 1000 fold

System: not given
Assay: not given
Details: not given

Compound | melting point [°C]
C=CC[C@H](NC(=O)[C@H](CCCCN)NC(=O)Cc1cn(CC=C)c2ccccc12)C(=O)OC | 103 to 106

System: Staphylococcus aureus (ATCC 6538P)
Assay: Antibacterial screen (MIC, 96 well microtitre broth dilution) against S. aureus
Format: cell-based
Details: 37° C. for 18 hours, highest dilution of compound that prevented bacterial growth
Procedure: General Methods for Antibacterial Screens
• SA: Staphylococcus aureus • PA: Pseudomonas aeruginosa • KP: Klebsiella pneumoniae • SP: Streptococcus pneumoniae Bacterial Strains Used: • Staphylococcus aureus (ATCC 6538P) • Pseudonmonas aeruginosa (ATCC 27853) • Klebsiella pneumoniae (IP103623) • Streptococcus pneumoniae (IP53146) Culture Media
Mueller-Hinton Broth Medium (MHB): MHB (Oxoid CM405) was prepared with final concentrations of 1 μg/mL MgCl2 and 2 μg/mL CaCl2. Culture medium was pre-warmed for approximately 2-3 hours at 37° C. before use.
From thawed cryovials, P. aeruginosa, K. pneumoniae and S. aureus were streaked onto Mueller Hinton Agar (MHA), and S. pneumoniae was streaked onto Blood Agar (BA), and plates were incubated overnight at 37° C. For each bacterial strain, 10 cryovials were prepared by looping several colonies into 0.5 mL of 20% glycerol solution. The cryovials were immediately stored at −140° C.
A cryovial was removed from −140° C. storage and thawed at room temperature. An MHA plate was streaked with a loopful of bacterial suspension and incubated overnight at 37° C. to create a parent plate (P1). A daughter plate (D1) was streaked from the parent plate and incubated overnight at 37° C. The parent plate was stored at 4° C. A loop of colony from the daughter plate was used to inoculate a 125 mL flask containing 20 mL of Mueller Hinton Broth (MHB) containing 25 μg/mL CaCl2.2H2O and 12.5 μ/mL MgCl2.6H2O. The flask was shaken at 260 rpm for 18 hours at 37° C. on an orbital incubator shaker. The parent plate (P1) was reused within 9 days to generate another daughter plate (D2), which, in turn, was used to inoculate a broth culture. Parent plates were used twice (to generate D1 and D2 plates) before a new one was prepared from the previously thawed cryovial. The second parent plate (P2) was used to generate two additional daughter plates using the procedure outlined above before being discarded. Cryovials were used twice to prepare parent plates (P1 and P2) before being discarded.
Prepare a 1/10 dilution of Seed Cultures by adding 250 μl of the cultures to 2,250 μl of MHB in a disposable cuvette. Read OD650 and multiply OD650 by a factor of 10 to calculate the optical density of the undiluted culture. Calculate the required dilution factor by dividing the observed OD650 by the standard OD650 for each strain (previously determined in assay optimisation studies).
Prepare sufficient volumes of the final inoculum cultures in pre-warmed MHB (37° C.) by diluting the standardised cultures to the required final concentration. The final dilutions used for each of the bacterial strains were as follows: • K. pneumoniae—10^6 dilution; • P. aeruginosa—10^6 dilution; • S. aureus—10^8 dilution; • S. pneumoniae—10^4 dilution. Assay Procedure (for 96 well Microtiter Plates)
Add 50 microliters of liquid medium to each well of a 96 well microtitre plate. Dissolve test samples in liquid medium. Add 50 microliters of test sample in triplicate to the top row of the microtitre plate, and include a vancomycin control set. Also include a compound negative control well set. Allow inoculated culture medium to incubate at 37° C. for 30 minutes, shaking at 130 rpm. Using a multichannel pipette, mix the contents of the first row and transfer 50 microliters of mixed broth solutions to the next row, change tips and repeat until the last row contains diluted compound or control and discard 50 microliters from the last row. Each well should now contain 50 microliters of diluted compound or negative control medium. Using a multistepper pipette add 50 microliters of inoculum to each well of the plate, save for one row containing the compound negative control, to this row add 50 microliters of liquid broth. Incubate plates at 37° C. for 18 hours, shaking at 100 rpm in an environment of approximately 90% relative humidity. Results were recorded as the highest dilution of compound that prevented bacterial growth (MIC).

Compound | MIC [mg/L]
6-Acetamido-9-(4-aminobutyl)-8,11-diaza-1-tert-butoxycarbonyl-14-ene-12-methoxycarbonyl-7,10-dioxo-[12](3,6)-1H-carbazolophane HCl (9S,12S) [Example 39A] | 32
C=CCc1cc2ccccc2c(-c2c(OC)c(CC(NC(C)=O)C(=O)N[C@H](CCCCNC(=O)OC(C)(C)C)C(=O)N[C@@H](CC=C)C(=O)OCc3ccccc3)cc3ccccc23)c1OC (stereo partly drawn) [Example 13A, benzyl (aR/S,2S,5R)-8-acetamido-2-allyl-9-{3-[3′-allyl-2,2′-dimethoxy-1,1′-binaphthyl]}-3,6-diaza-5-(4-{[(tert-butoxy)carbonyl]amino}butyl)-4,7-dioxononanoate] | 4 (≈ 4.45 µM)
C=CCOc1ccc2ccccc2c1-c1c(OCCCC(=O)N[C@H](CCCCNC(=N)N)C(=O)N[C@@H](CC=C)C(=O)OC)ccc2ccccc12.Cl [Example 111, methyl (aS/R,2S,5R)-2-allyl-10-(2′-allyloxy-1,1′-binaphth-2-oxy)-3,6-diaza-5-(4-guanidinobutyl)-4,7-dioxodecanoate hydrochloride] | 8
6-Acetamido-8,11-diaza-9-(3-guanidinopropyl)-12-methoxycarbonyl-7,10-dioxo-[12](3,6)-1H-carbazolophane HCl (9S,12S) [Example 36] | 32
6-Acetamido-9-(4-aminobutyl)-8,11-diaza-12-methoxycarbonyl-7,10-dioxo-[12](3,6)-1H-carbazolophane HCl (9S,12S) [Example 40] | 64
CCCc1ccc2[nH]c3ccc(CC(NC(C)=O)C(=O)N[C@H](CCCCN)C(=O)N[C@@H](CCC)C(=O)OC)cc3c2c1.Cl (single isomer, unassigned) [44 (one isomer)] | 32
COC(=O)[C@@H]1CC=CCOc2ccc3ccccc3c2-c2c(ccc3ccccc23)OCC(=O)N[C@H](CCCCNC(=N)N)C(=O)N1.Cl [Example 103, (aR,S,7R,10S)-6,9-diaza-3,15-dioxa-5,8-dioxo-7-(4-guanidinobutyl)-10-methoxycarbonyl-1(1,2),2(1,2)-dinaphthalenacyclopentadecaphane-12-ene hydrochloride] | 8
CCCc1ccc2[nH]c3ccc(CC(NC(C)=O)C(=O)N[C@H](CCCCN)C(=O)N[C@@H](CCC)C(=O)OC)cc3c2c1.Cl (single isomer, unassigned) [44 (another isomer)] | 64
6-Acetamido-9-(4-aminobutyl)-8,11-diaza-12-methoxycarbonyl-7,10-dioxo-[12](3,6)-1H-carbazolophane HCl (9R,12S) [Example 42] | 64
C=CCc1cc2ccccc2c(-c2c(OC)c(CC(NC(C)=O)C(=O)N[C@H](CCCNC(=N)N)C(=O)N[C@@H](CC=C)C(=O)OC)cc3ccccc23)c1OC.Cl (stereo partly drawn) [Example 19A, methyl (aR/S,2S,5R)-8-acetamido-2-allyl-9-[3-(3′-allyl-2,2′-dimethoxy-1,1′-binaphthyl)]-3,6-diaza-5-(3-guanidinopropyl)-4,7-dioxononanoate hydrochloride] | 4
6-Acetamido-8,11-diaza-14-ene-9-(3-guanidinopropyl)-12-methoxycarbonyl-7,10-dioxo-[12](3,6)-1H-carbazolophane HCl (9R,12S) [Example 37] | 64
methyl (aR/S,2S,5R)-2-allyl-5-[2-({[(2′-allyloxy-1,1′-binaphthoxymethyl]carbonyl}amino)-3-aza-9-guanidino-4-oxononanoate hydrochloride [Example 101] | 8
COC(=O)C1CCC=COc2ccc3ccccc3c2-c2c(ccc3ccccc23)OCCCC(=O)NC(CCCCNC(=N)N)C(=O)N1.Cl [Example 113, (aR/S,9R,12S)-8,11-diaza-9-(4-guanidinobutyl)-12-methoxycarbonyl-1(1,2),2(1,2)-dinaphthalena-3,17-dioxa-7,10-dioxoheptadecaphane-15-ene hydrochloride] | 8
(aR/S,7R,10S)-4-acetamido-6,9-diaza-10-benzyloxycarbonyl-7-(4-{[(tert-butoxy)carbonyl]amino}butyl)-1(1,3),2(1,3)-di(2-methoxynaphthalena)-5,8-dioxocyclotetradecaphane-12-ene [Example 15B] | 16
6-Acetamido-8,11-diaza-9-(3-guanidinopropyl)-12-methoxycarbonyl-7,10-dioxo-[12](3,6)-1H-carbazolophane HCl (9R,12S) [Example 38] | 32
COC(=O)C1CCCCc2cc3ccccc3c(c2OC)-c2c(OC)c(cc3ccccc23)CC(NC(C)=O)C(=O)NC(CCCCN)C(=O)N1.Cl [Example 15A, (aR/S,7R,10S)-4-acetamido-7-(4-aminobutyl)-6,9-diaza-10-methoxycarbonyl-1(1,3),2(1,3)-di(2-methoxynaphthalena)-5,8-dioxocyclotetradecaphane hydrochloride] | 16
COC(=O)C1CC=CCc2cc3ccccc3c(c2OC)-c2c(OC)c(cc3ccccc23)CC(NC(C)=O)C(=O)NC(CCCCN)C(=O)N1.Cl (single isomer, unassigned) [15 (one isomer)] | 8

Same assay, conditions: 37° C. for 18 hours, highest dilution of compound that prevented bacterial growth, hydrochloride

Compound | MIC [mg/L]
COC(=O)C1CC=CCc2cc3ccccc3c(c2OC)-c2c(OC)c(cc3ccccc23)CC(NC(C)=O)C(=O)NC(CCCNC(=N)N)C(=O)N1.Cl (single isomer, unassigned) [21A (another isomer)] | 64
COC(=O)C1CC=CCc2cc3ccccc3c(c2OC)-c2c(OC)c(cc3ccccc23)CC(NC(C)=O)C(=O)NC(CCCNC(=N)N)C(=O)N1.Cl (single isomer, unassigned) [21A (one isomer)] | 16

Same assay, conditions: Staphylococcus aureus, ATCC6538P, 37° C. for 18 hours, highest dilution of compound that prevented bacterial growth, read-out: MIC

Compound | MIC [mg/L]
COC(=O)[C@@H]1C/C=C/COc2ccc3ccccc3c2-c2c(ccc3ccccc23)OCCCC(=O)N[C@H](CCCCN)C(=O)N1.Cl [Example 109] | 64
C=CCOc1ccc2ccccc2c1-c1c(OCCCC(=O)N[C@H](CCCCN)C(=O)N[C@@H](CC=C)C(=O)OC)ccc2ccccc12.Cl [Example 107, methyl (aS/R,2S,5R)-2-allyl-10-(2′-allyloxy-1,1′-binaphth-2-oxy)-5-(4-aminobutyl)-3,6-diaza-4,7-dioxodecanoate hydrochloride] | 16
C=CCOc1ccc2ccccc2c1-c1c(OCC(=O)N[C@H](CCCCN)C(=O)N[C@@H](CC=C)C(=O)OC)ccc2ccccc12.Cl [Example 97] | 4

System: not given
Assay: not given
Details: cited from earlier work

Compound | toxicity in mice
Cl.Cl.NCC(O)CC1NC(=O)C(N)Cc2cc(ccc2O)-c2ccc(O)c(c2)C(O)C(C(=O)O)NC1=O (stereo not shown) [Biphenomycin A] | low toxicity
